One data set has as its system mock-infected MT-4 cells. Briefly: Cytotoxicity based on viability of mock-infected host cells (MTT method). The conditions noted are these: mock-infected MT-4 cells, MTT method, 4 or 5 days at 37° C. Type of data set: cell-based. A digest of the protocol:
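Mock-infected MT-4 cells at 2.5×10^5 cells/ml were exposed to various concentrations of test compound, run in parallel with HIV-infected (1000 CCID50) cultures. After 4 or 5 days at 37° C., host-cell viability was read by MTT.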
A general note: Formazan colour is commonly taken as a measure of viable cells.

The subject of another data set is HIV. The data set is described as follows: microbe, parasite or virus in culture. Type of data set: cell-based. A digest of the protocol: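 MT-4 cells (2.5×10^5 cells/ml) infected with 1000 CCID50 HIV, added at once to compound dilutions, incubated 4 or 5 days at 37° C. Protection from virus-induced cytopathic effect read by MTT; cytotoxicity from MTT viability of mock-infected cells in parallel.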

Setting [1] is: Human immunodeficiency virus 1, MT4, HIV-infected MT-4 cells, MTT method, 4 or 5 days at 37° C., read-out: ED50 (the source's name).
The mark [2] stands for this setting: Human immunodeficiency virus 1, MT4, read-out: ED50.

Values after ≈ are worked out from the molar mass of the structure shown. Where two headings read alike, the source gives them in different places.

The melting point is the temperature of the solid-liquid transition.

With `COc1cc(Cn2c(Oc3cc(C)cc(C)c3)c(C(C)C)c(=O)[nH]c2=O)cc(OC)c1` [Example 58, 1-(3,5-Dimethoxybenzyl)-5-isopropyl-6-(3,5-dimethylphenoxy)-2,4-pyrimidinedione], the melting point was in the range of 162 to 164 °C. For the same compound, in the data set with mock-infected MT-4 cells, the CD50 was over 100.00 µg/mL. Besides, the EC50 with HIV (setting [1]) turned out to be 0.51 µg/mL (≈ 1.2 µM).
In the same order, the values of `CCc1c(C(=O)c2cc(C)cc(C)c2)n(Cc2cc(OC)cc(OC)c2)c(=O)[nH]c1=O` [Example 59, 1-(3,5-Dimethoxybenzyl)-5-ethyl-6-(3,5-dimethylbenzoyl)-2,4-pyrimidinedione] are 208 to 210 °C, 69.00 µg/mL and 0.31 µg/mL (≈ 0.734 µM).
In turn, `COc1cc(Cn2c(C(=O)c3cc(C)cc(C)c3)c(C(C)C)c(=O)[nH]c2=O)cc(OC)c1` [Example 60, 1-(3,5-Dimethoxybenzyl)-5-isopropyl-6-(3,5-dimethyl-benzoyl)-2,4-pyrimidinedione] returned a melting point of 220 to 222 °C. This compound showed a CD50 with mock-infected MT-4 cells of 12.09 µg/mL. Besides, the EC50 in the data set with HIV (setting [1]) amounted to 0.23 µg/mL (≈ 0.527 µM).
As for `CCc1c(Sc2cc(C)cc(C)c2)n(Cc2cc(C(F)(F)F)cc(C(F)(F)F)c2)c(=O)[nH]c1=O` [Example 61, 1-[3,5-Bis(trifluoromethyl)benzyl]-5-ethyl-6-(3,5-dimethyl-phenyl)thio-2,4-pyrimidinedione], the melting point was 212 to 213 °C. Further, the CD50 in the data set on mock-infected MT-4 cells was over 100.00 µg/mL. In addition, in the data set with HIV (setting [1]), the EC50 was over 100 µg/mL.
`Cc1cc(C)cc(Sc2c(C(C)C)c(=O)[nH]c(=O)n2Cc2cc(C(F)(F)F)cc(C(F)(F)F)c2)c1` [Example 62, 1-[3,5-Bis(trifluoromethyl)benzyl]-5-isopropyl-6-(3,5-dimethylphenyl)thio-2,4-pyrimidinedione] displayed a melting point of 183 to 185 °C. In the data set with mock-infected MT-4 cells, this compound yielded a CD50 of over 100.00 µg/mL. Also, the EC50 in the data set with HIV (setting [1]) is over 100 µg/mL.
The compound `CCc1c(Oc2cc(C)cc(C)c2)n(Cc2cc(C(F)(F)F)cc(C(F)(F)F)c2)c(=O)[nH]c1=O` [Example 63, 1-[3,5-Bis(Trifluoromethyl)benzyl]-5-ethyl-6-(3,5-dimethyl-phenoxy)-2,4-pyrimidinedione] returned a melting point of 183 to 185 °C. In the data set on mock-infected MT-4 cells, the CD50 is over 100.00 µg/mL. In addition, in the data set with HIV (setting [1]), the EC50 was over 100 µg/mL.
For the compound `Cc1cc(C)cc(Oc2c(C(C)C)c(=O)[nH]c(=O)n2Cc2cc(C(F)(F)F)cc(C(F)(F)F)c2)c1` [Example 64, 1-[3,5-Bis(Trifluoromethyl)benzyl]-5-isopropyl-6-(3,5-dimethylphenoxy)-2,4-pyrimidinedione], the melting point is 182 to 183 °C. Also, the CD50 with mock-infected MT-4 cells was over 100.00 µg/mL. Also, the EC50 in the data set with HIV (setting [1]) is over 100 µg/mL.
`CCc1c(C(=O)c2cc(C)cc(C)c2)n(Cc2cc(C(F)(F)F)cc(C(F)(F)F)c2)c(=O)[nH]c1=O` [Example 65, 1-[3,5-Bis(Trifluoromethyl)benzyl]-5-ethyl-6-(3,5-dimethyl-benzoyl)-2,4-pyrimidinedione] yielded a melting point of 241 to 243 °C. Further, in the data set on mock-infected MT-4 cells, the CD50 is over 100.00 µg/mL. Besides, the EC50 in the data set on HIV (setting [1]) was over 100 µg/mL.
Compound `Cc1cc(C)cc(C(=O)c2c(C(C)C)c(=O)[nH]c(=O)n2Cc2cc(C(F)(F)F)cc(C(F)(F)F)c2)c1` [Example 66, 1-[3,5-Bis(Trifluoromethyl)benzyl]-5-isopropyl-6-(3,5-dimethyl-benzoyl)-2,4-pyrimidinedione] yielded a melting point of 178 to 180 °C. Further, the CD50 with mock-infected MT-4 cells amounted to 8.14 µg/mL. The EC50 in the data set on HIV (setting [1]) turned out to be 1.75 µg/mL (≈ 3.41 µM).
In the same order, the values of `CCc1c(Sc2cc(C)cc(C)c2)n(Cc2cc(F)ccc2F)c(=O)[nH]c1=O` [Example 67, 1-(2,5-Difluorobenzyl)-5-ethyl-6-(3,5-dimethylphenyl)thio-2,4-pyrimidinedione] are 214 to 216 °C, 12.40 µg/mL and 0.008 µg/mL (≈ 0.0199 µM).
Compound `Cc1cc(C)cc(Sc2c(C(C)C)c(=O)[nH]c(=O)n2Cc2cc(F)ccc2F)c1` [Example 68, 1-(2,5-Difluorobenzyl)-5-isopropyl-6-(3,5-dimethylphenyl)thio-2,4-pyrimidinedione] registered a melting point of 192 to 194 °C. This compound also returned a CD50 in the data set on mock-infected MT-4 cells of 4.15 µg/mL. In addition, the EC50 in the data set on HIV (setting [1]) worked out at 0.005 µg/mL (≈ 0.012 µM).
In the case of `CCc1c(Oc2cc(C)cc(C)c2)n(Cc2cc(F)ccc2F)c(=O)[nH]c1=O` [Example 69, 1-(2,5-Difluorobenzyl)-5-ethyl-6-(3,5-dimethylphenoxy)-2,4-pyrimidinedione], the melting point was in the range of 231 to 233 °C. The CD50 in the data set with mock-infected MT-4 cells was over 100.00 µg/mL. In addition, the EC50 in the data set with HIV (setting [1]) turned out to be 0.034 µg/mL (≈ 0.088 µM).
In the same order, the values of `Cc1cc(C)cc(Oc2c(C(C)C)c(=O)[nH]c(=O)n2Cc2cc(F)ccc2F)c1` [Example 70, 1-(2,5-Difluorobenzyl)-5-isopropyl-6-(3,5-dimethylphenoxy)-2,4-pyrimidinedione] are 214 to 216 °C, over 100.00 µg/mL and 0.014 µg/mL (≈ 0.035 µM).
`CCc1c(C(=O)c2cc(C)cc(C)c2)n(Cc2cc(F)ccc2F)c(=O)[nH]c1=O` [Example 71, 1-(2,5-Difluorobenzyl)-5-ethyl-6-(3,5-dimethylbenzoyl)-2,4-pyrimidinedione] yielded a melting point of 135 to 137 °C. Moreover, the CD50 with mock-infected MT-4 cells is over 100.00 µg/mL. Moreover, the EC50 in the data set on HIV (setting [1]) is 0.004 µg/mL (≈ 0.01 µM).
Compound `Cc1cc(C)cc(C(=O)c2c(C(C)C)c(=O)[nH]c(=O)n2Cc2cc(F)ccc2F)c1` [Example 72, 1-(2,5-Difluorobenzyl)-5-isopropyl-6-(3,5-dimethylbenzoyl)-2,4-pyrimidinedione] gave a melting point of 205 to 207 °C. In the data set on mock-infected MT-4 cells, this compound displayed a CD50 of 5.26 µg/mL. Besides, the EC50 in the data set with HIV (setting [1]) came out at 0.003 µg/mL (≈ 0.00727 µM).
As to `CCc1c(Sc2cc(C)cc(C)c2)n(Cc2cc(F)cc(F)c2)c(=O)[nH]c1=O` [Example 73, 1-(3,5-Difluorobenzyl)-5-ethyl-6-(3,5-dimethylphenyl)thio-2,4-pyrimidinedione], the melting point was 219 to 221 °C. The CD50 with mock-infected MT-4 cells is over 100.00 µg/mL. The EC50 in the data set with HIV (setting [1]) came to 0.016 µg/mL (≈ 0.0398 µM).
Compound `Cc1cc(C)cc(Sc2c(C(C)C)c(=O)[nH]c(=O)n2Cc2cc(F)cc(F)c2)c1` [Example 74, 1-(3,5-Difluorobenzyl)-5-isopropyl-6-(3,5-dimethylphenyl)thio-2,4-pyrimidinedione] gave a melting point of 203 to 205 °C. This compound displayed a CD50 in the data set on mock-infected MT-4 cells of 10.50 µg/mL. For the same compound, the EC50 in the data set on HIV (setting [1]) is 0.013 µg/mL (≈ 0.0312 µM).
`CCc1c(Oc2cc(C)cc(C)c2)n(Cc2cc(F)cc(F)c2)c(=O)[nH]c1=O` [Example 75, 1-(3,5-Difluorobenzyl)-5-ethyl-6-(3,5-dimethylphenoxy)-2,4-pyrimidinedione] yielded a melting point of 178 to 180 °C. The CD50 in the data set on mock-infected MT-4 cells came out at 14.30 µg/mL. Also, the EC50 with HIV (setting [1]) was over 14.3 µg/mL.
Turning to `Cc1cc(C)cc(Oc2c(C(C)C)c(=O)[nH]c(=O)n2Cc2cc(F)cc(F)c2)c1` [Example 76, 1-(3,5-Difluorobenzyl)-5-isopropyl-6-(3,5-dimethylphenoxy)-2,4-pyrimidinedione], the melting point was in the range of 186 to 189 °C. Besides, the CD50 with mock-infected MT-4 cells was found to be 12.10 µg/mL. Besides, the EC50 with HIV (setting [1]) is 0.022 µg/mL (≈ 0.0549 µM).
Turning to `CCc1c(C(=O)c2cc(C)cc(C)c2)n(Cc2cc(F)cc(F)c2)c(=O)[nH]c1=O` [Example 77, 1-(3,5-Difluorobenzyl)-5-ethyl-6-(3,5-dimethylbenzoyl)-2,4-pyrimidinedione], the melting point fell in the range of 165 to 167 °C. The CD50 in the data set on mock-infected MT-4 cells was found to be 7.0 µg/mL. The EC50 in the data set with HIV (setting [1]) stood at 0.003 µg/mL (≈ 0.00753 µM).
With `Cc1cc(C)cc(C(=O)c2c(C(C)C)c(=O)[nH]c(=O)n2Cc2cc(F)cc(F)c2)c1` [Example 78, 1-(3,5-Difluorobenzyl)-5-isopropyl-6-(3,5-dimethylbenzoyl)-2,4-pyrimidinedione], the melting point lay in the range of 207 to 209 °C. In the data set with mock-infected MT-4 cells, this compound yielded a CD50 of 7.1 µg/mL. The EC50 in the data set on HIV (setting [1]) was determined as 0.0033 µg/mL (≈ 0.008 µM).
As for `CCc1c(Sc2cc(C)cc(C)c2)n(Cc2cc(Cl)cc(Cl)c2)c(=O)[nH]c1=O` [Example 79, 1-(3,5-Dichlorobenzyl)-5-ethyl-6-(3,5-dimethylphenyl)thio-2,4-pyrimidinedione], the melting point lay in the range of 180 to 182 °C. The compound also yielded a CD50 in the data set with mock-infected MT-4 cells of 24.77 µg/mL. Also, in the data set on HIV (setting [2]), the EC50 was determined as 0.052 µg/mL (≈ 0.119 µM).
In the case of `Cc1cc(C)cc(Sc2c(C(C)C)c(=O)[nH]c(=O)n2Cc2cc(Cl)cc(Cl)c2)c1` [Example 80, 1-(3,5-Dichlorobenzyl)-5-isopropyl-6-(3,5-dimethylphenyl)thio-2,4-pyrimidinedione], the melting point is 194 to 196 °C. Also, the CD50 with mock-infected MT-4 cells amounted to 46.83 µg/mL. Moreover, the EC50 with HIV (setting [2]) is 0.049 µg/mL (≈ 0.109 µM).
Compound `CCc1c(Oc2cc(C)cc(C)c2)n(Cc2cc(Cl)cc(Cl)c2)c(=O)[nH]c1=O` [Example 81, 1-(3,5-Dichlorobenzyl)-5-ethyl-6-(3,5-dimethylphenoxy)-2,4-pyrimidinedione] gave a melting point of 194 to 196 °C. In the data set with mock-infected MT-4 cells, this compound came in with a CD50 of over 100.00 µg/mL. Also, in the data set on HIV (setting [2]), the EC50 stood at 1.16 µg/mL (≈ 2.77 µM).
In the same order, the values of `Cc1cc(C)cc(Oc2c(C(C)C)c(=O)[nH]c(=O)n2Cc2cc(Cl)cc(Cl)c2)c1` [Example 82, 1-(3,5-Dichlorobenzyl)-5-isopropyl-6-(3,5-dimethylphenoxy)-2,4-pyrimidinedione] are 234 to 236 °C, 36.15 µg/mL and 0.173 µg/mL (≈ 0.399 µM).
For the compound `CCc1c(C(=O)c2cc(C)cc(C)c2)n(Cc2cc(Cl)cc(Cl)c2)c(=O)[nH]c1=O` [Example 83, 1-(3,5-Dichlorobenzyl)-5-ethyl-6-(3,5-dimethylbenzoyl)-2,4-pyrimidinedione], the melting point is 223 to 225 °C. In the data set with mock-infected MT-4 cells, this compound yielded a CD50 of 3.10 µg/mL. For the same compound, the EC50 in the data set on HIV (setting [2]) was 0.021 µg/mL (≈ 0.0487 µM).

These data come from US6987114B1, “Antiviral pyrimidinedione derivatives and process for the preparation thereof” (Samjin Pharmaceutical Co., Ltd, priority 1999, dated 2006).
